Among the data in ChEMBL document CHEMBL1201862, “PubChem BioAssay data set” (2004) are EC50 and AC50 values, retold here.

One may read the AC50 as the concentration at which the activity in the assay is half-maximal.

Data set [1] has as its target T1, Corticotropin-releasing factor receptor 2/Corticotropin-releasing factor-binding protein (Homo sapiens, UniProt P24387+Q13324).
T1 sequence (Q13324 whole entry): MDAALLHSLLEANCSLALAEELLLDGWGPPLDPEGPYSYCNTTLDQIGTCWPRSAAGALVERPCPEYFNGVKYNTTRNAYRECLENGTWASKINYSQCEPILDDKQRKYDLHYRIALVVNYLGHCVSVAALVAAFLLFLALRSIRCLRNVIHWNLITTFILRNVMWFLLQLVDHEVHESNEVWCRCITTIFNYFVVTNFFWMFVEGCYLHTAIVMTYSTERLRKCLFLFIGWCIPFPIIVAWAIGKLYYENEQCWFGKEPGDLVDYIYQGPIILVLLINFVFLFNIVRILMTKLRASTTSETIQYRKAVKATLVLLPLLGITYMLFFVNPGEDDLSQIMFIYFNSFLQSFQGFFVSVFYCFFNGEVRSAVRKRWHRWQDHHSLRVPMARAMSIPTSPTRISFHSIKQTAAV
T1 sequence (P24387 whole entry): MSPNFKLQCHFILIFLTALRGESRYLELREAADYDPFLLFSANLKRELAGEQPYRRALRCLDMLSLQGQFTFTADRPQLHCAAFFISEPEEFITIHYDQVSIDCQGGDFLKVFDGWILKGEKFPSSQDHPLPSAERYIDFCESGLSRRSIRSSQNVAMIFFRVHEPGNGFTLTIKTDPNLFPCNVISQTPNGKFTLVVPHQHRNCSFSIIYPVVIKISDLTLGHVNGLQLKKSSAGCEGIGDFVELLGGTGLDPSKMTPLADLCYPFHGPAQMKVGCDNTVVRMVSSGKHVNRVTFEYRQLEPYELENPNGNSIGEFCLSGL
Briefly: activators of CRF receptor 2 with binding protein – uHTS hits, confirmation (AID 602473). It counts as functional. The following applies: read-out: EC50_Mean.

The target of the next data set is Cytochrome P450 3A4 (Homo sapiens, UniProt P08684).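 Note: CYP3A4 tested as one member of a cytochrome P450 panel screen.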
Sequence of Cytochrome P450 3A4 (P08684 whole entry): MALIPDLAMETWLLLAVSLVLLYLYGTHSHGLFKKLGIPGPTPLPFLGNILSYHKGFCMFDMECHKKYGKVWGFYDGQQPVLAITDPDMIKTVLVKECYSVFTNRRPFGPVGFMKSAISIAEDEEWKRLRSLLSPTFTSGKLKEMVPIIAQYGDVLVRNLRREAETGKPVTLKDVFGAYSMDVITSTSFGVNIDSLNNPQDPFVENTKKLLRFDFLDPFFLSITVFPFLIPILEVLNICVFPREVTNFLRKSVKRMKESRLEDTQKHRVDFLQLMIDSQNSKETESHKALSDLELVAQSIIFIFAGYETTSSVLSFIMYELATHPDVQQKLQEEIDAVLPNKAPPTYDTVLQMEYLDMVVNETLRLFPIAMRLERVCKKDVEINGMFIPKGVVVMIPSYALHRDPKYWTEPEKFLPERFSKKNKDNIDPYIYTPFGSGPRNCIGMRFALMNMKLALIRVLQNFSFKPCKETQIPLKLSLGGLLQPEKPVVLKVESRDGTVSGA
For another data set, the target named is Cytochrome P450 2C19 (Homo sapiens, UniProt P33261). As to the kind of experiment: Cytochrome panel assay with activity outcomes. Panel member name: p450-cyp2c19 Compounds with AC50 equal or less than 10 uM are considered active. It counts as functional.
Sequence of Cytochrome P450 2C19 (P33261 whole entry): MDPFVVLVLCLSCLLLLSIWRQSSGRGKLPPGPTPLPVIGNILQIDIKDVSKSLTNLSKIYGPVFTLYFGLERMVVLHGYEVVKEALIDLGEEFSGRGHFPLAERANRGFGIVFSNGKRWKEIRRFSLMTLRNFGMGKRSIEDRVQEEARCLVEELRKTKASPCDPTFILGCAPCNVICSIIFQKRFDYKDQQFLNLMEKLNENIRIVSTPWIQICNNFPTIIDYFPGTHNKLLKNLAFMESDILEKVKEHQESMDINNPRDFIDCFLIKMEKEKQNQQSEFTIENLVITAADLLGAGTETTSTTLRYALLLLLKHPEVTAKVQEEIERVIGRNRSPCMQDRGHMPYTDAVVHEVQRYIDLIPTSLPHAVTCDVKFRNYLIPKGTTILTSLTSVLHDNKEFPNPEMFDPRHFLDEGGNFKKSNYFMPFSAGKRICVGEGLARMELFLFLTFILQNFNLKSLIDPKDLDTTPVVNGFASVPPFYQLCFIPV
The nature of data set [2]: luciferase reporter signal suppression in cells – H4 neuroglioma cells, luminescence, dose response (AID 1990). It counts as functional, cell-based.
Data set [3] in a line: Luminescence Cell-Based Dose Response HTS to Identify Inhibitors of 5'UTR Stem-Loop Driven Prion Protein mRNA Translation in H4 Neuroglioblastoma Cells. [Related pubchem assays: 1827 (Project Summary), 1813 (Primary HTS)]. It counts as functional.
Data set [4] can be described thus: alpha-synuclein stem-loop luciferase translation blockers – H4 neuroglioma cells, luminescence, confirmation (AID 1988). It counts as functional, cell-based.
Another data set concerns the target Cytochrome P450 2C9 (Homo sapiens, UniProt P11712).

The source made the active and inactive calls.

Sequence of Cytochrome P450 2C9 (P11712 whole entry): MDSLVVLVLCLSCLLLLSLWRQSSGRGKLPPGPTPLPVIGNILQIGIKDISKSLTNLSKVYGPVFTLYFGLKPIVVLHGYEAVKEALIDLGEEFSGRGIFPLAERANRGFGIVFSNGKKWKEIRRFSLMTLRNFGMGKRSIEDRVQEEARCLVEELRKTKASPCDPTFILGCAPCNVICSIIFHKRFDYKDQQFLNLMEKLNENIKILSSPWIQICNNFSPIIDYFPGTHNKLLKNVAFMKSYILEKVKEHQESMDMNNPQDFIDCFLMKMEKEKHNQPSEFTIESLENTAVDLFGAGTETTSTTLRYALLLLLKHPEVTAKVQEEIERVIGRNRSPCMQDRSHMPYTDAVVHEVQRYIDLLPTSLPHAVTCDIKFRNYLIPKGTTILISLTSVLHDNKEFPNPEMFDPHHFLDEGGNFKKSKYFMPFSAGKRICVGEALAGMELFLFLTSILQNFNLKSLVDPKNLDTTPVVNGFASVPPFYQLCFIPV

Take `CCOc1ccc(S(=O)(=O)Nc2nc3ccccc3nc2Nc2ccc(N3CCOCC3)cc2)cc1`: in data set [1], the EC50 was > 53 µM (inactive).
`COc1ccc(/C=N/NC(=O)C2CCN(c3ncc(C(F)(F)F)cc3Cl)CC2)cc1`: at Cytochrome P450 3A4, the AC50 was 11.2 µM (inconclusive).
In the case of `O=C(Nc1ccc(Br)cc1Cl)c1ccc2c(=O)n3c(nc2c1)CCC3`, the EC50 in data set [1] is 4.04 µM (active).
For `CC(C)(Oc1ccc(Cl)cc1)C(=O)Nc1cccnc1`, on Cytochrome P450 3A4, the AC50 is 17.8 µM (inconclusive).
With `CCOC(=O)CC(=O)CSc1nc(-c2cccnc2)cc(C)c1C#N`, the AC50 on Cytochrome P450 2C19 (read-out: AC50) is 8.91 µM (inconclusive); on Cytochrome P450 3A4 it was 11.2 µM (inconclusive).
With `Cc1ccc2cc(C(c3nnnn3C3CCCC3)N3CCN(c4ccc(F)cc4)CC3)c(O)nc2c1` (stereo not drawn), the figures for the EC50 in data set [2], in data set [3] and in data set [4] were 20.6 µM (active), 113 µM (active) and 106 µM (active), respectively.
Regarding `CN(C)CCNC(=O)c1csc(Nc2cccc3ccccc23)n1`, the EC50 in data set [2] was > 120 µM (not active); in data set [3] it was 23.6 µM (active); in data set [4] it was 17.1 µM (active).
Take `Cc1cc(C(=O)OC2CCOC2=O)c2ccccc2n1` (stereo not drawn): the AC50 on Cytochrome P450 2C19 (read-out: AC50) was 28.2 µM (inconclusive).
As for `COc1cccc(-c2ccc3ncnc(NCc4cccnc4)c3c2)c1`, the AC50 at Cytochrome P450 2C9 is 1.58 µM (inconclusive).
As for `COc1ccc(NC(=O)c2cc(-c3cccnc3)nc3ccc(C)cc23)cc1OC`, the AC50 at Cytochrome P450 2C19 (read-out: AC50) was 10 µM (inconclusive); at Cytochrome P450 2C9, 7.08 µM (inconclusive).
For the compound `CC(C)=CCC/C(C)=C/CO/N=C1/C[C@@H](O)[C@@H](O)[C@@H]2[C@H]3C(=O)N(c4ccc(F)cc4F)C(=O)[C@@H]3CC[C@@H]12`, the AC50 on Cytochrome P450 3A4 is 3.98 µM (inconclusive).
Take `COc1ccccc1-c1ccc2ncnc(Nc3ccccc3)c2c1`: on Cytochrome P450 2C9, the AC50 was 1.26 µM (inconclusive).
`COC(=O)[C@@]1(Cc2ccc(OC)cc2)[C@@H]2C(=CC(=O)[C@H]2CC(=O)C(=O)N2CCCC2)CN1C(=O)c1ccccc1`: the AC50 is 39.8 µM (inconclusive) on Cytochrome P450 2C19 (read-out: AC50) and 2 µM (inconclusive) on Cytochrome P450 3A4.
Taken in the same sequence, the figures for `COc1ccc(NC(=O)/C(=C\c2cc(OC)c(OC)cc2[N+](=O)[O-])NC(=O)c2ccccc2)cc1` were 20 µM (inconclusive) and 0.891 µM (inconclusive).
As to `OCCCCNCc1ccc(OCc2ccccc2Cl)cc1`, the AC50 on Cytochrome P450 2C19 (read-out: AC50) and on Cytochrome P450 3A4 was 25.1 µM (inconclusive) each time.
Consider `COc1ccccc1-c1nc(N(C)C)c2ccccc2n1`, for which the AC50 at Cytochrome P450 3A4 was 15.8 µM (inconclusive).
In the case of `N#Cc1ccc(CN2CCCC3(CCN(C(=O)c4cccc(F)c4)CC3)C2)cc1`, the AC50 on Cytochrome P450 3A4 is 10 µM (inconclusive); on Cytochrome P450 2C9 it was 39.8 µM (inconclusive).
For `COc1ccc(C2(C)NC(=O)N(CC(=O)c3cc(C)n(C4CC4)c3C)C2=O)cc1` (stereo not drawn), the EC50 in data set [1] is 5.74 µM (active).
In the case of `CCCOC(=O)c1ccc(NC(=O)c2cn(CC)c3nc(C)ccc3c2=O)cc1`, the results for the AC50 at Cytochrome P450 2C19 (read-out: AC50) and at Cytochrome P450 2C9 were 20 µM (inconclusive) and 15.8 µM (inconclusive), respectively.
As to `Cc1cc(C)cc(N2C(=O)/C(=C/NC3CCS(=O)(=O)C3)c3ccccc3C2=O)c1` (stereo not drawn), the AC50 at Cytochrome P450 2C19 (read-out: AC50) was 39.8 µM (inconclusive).
In the case of `COc1ccccc1NC(=O)CCSc1nnnn1C`, the EC50 in data set [1] is > 53 µM (inactive).
For the compound `CCCCc1nc(NCC2CCCO2)c(C#N)c2c1COC(C)(C)C2` (stereo not drawn), the EC50 in data set [2] is 28 µM (active); in data set [3] it was > 120 µM (not active); in data set [4] it was > 120 µM (not active).
For `COCCn1c(=O)c(-c2cccs2)nc2cnc(N3CCN(C)CC3)nc21`, the AC50 on Cytochrome P450 3A4 is 31.6 µM (inconclusive).
As to `COc1ccc(Cc2nn3c(-c4ccccc4Br)nnc3s2)cc1`, the EC50 in data set [2] and in data set [4] was > 120 µM (not active) each time.
Take `Cc1ccc(SCc2ccc(C(=O)Nc3ccccc3Br)cc2)cc1`: the EC50 in data set [1] was > 53 µM (inactive).
For `Cc1cc(Oc2ccccc2)nc(-c2ccccc2)n1`, at Cytochrome P450 2C9, the AC50 was 12.6 µM (inconclusive).
On to `N#C/C(=C(/O)c1cccc(F)c1)c1nc2ccccc2s1`, for which the EC50 in data set [1] was > 53 µM (inactive).
`Cc1ccccc1C(=O)Nc1cccc(NC(=O)Cn2cnc3c(=O)n(C)c(=O)n(C)c32)c1`: the EC50 in data set [2] is 26.9 µM (active); in data set [3], 12.9 µM (active); in data set [4] it was > 120 µM (not active).
Taken in the same sequence, the figures for `COc1ccc(-c2oc3cc(OC)c(O)c(OC)c3c(=O)c2OC)cc1O` were 11.3 µM (active), 12.6 µM (active) and 13.6 µM (active).
For `COc1ccc(Oc2ncc3ncc(=O)n(C[C@H]4CCCO4)c3n2)cc1`, on Cytochrome P450 2C9, the AC50 was 20 µM (inconclusive).
`COc1cc([N+](=O)[O-])ccc1-c1ccc(/C=N/NC(=O)OC(C)(C)C)o1`: the EC50 in data set [1] is 6.43 µM (active).
The same measure, in the same setting: the value for `CC1(C)C(=O)OC(c2cccn2-c2ccc([N+](=O)[O-])cc2)C2(CCCCC2)C1=O` (stereo not drawn) was 4.72 µM (active).
Consider `CCCOc1ccccc1N=C(Nc1nc(C)cc(C)n1)NS(=O)(=O)c1ccc(C)cc1`, for which the figures for the EC50 in data set [2], in data set [3] and in data set [4] were 14.6 µM (active), > 120 µM (not active) and > 120 µM (not active), respectively.
Consider `Cc1cc(C)n(CC(=O)N/N=C/c2ccco2)n1`, for which the AC50 entry at Cytochrome P450 2C19 is recorded as “inconclusive”.
For the compound `CCOC(=O)c1sc(NC(=O)c2cccc(S(=O)(=O)N3c4ccccc4CC3C)c2)cc1C` (stereo not drawn), the EC50 in data set [2] is 10.1 µM (active); in data set [3], 13.6 µM (active); in data set [4] it was 6.96 µM (active).
Regarding `COc1ncc2nc(CCc3ccccc3)c(=O)n(CCc3ccccc3)c2n1`, the AC50 on Cytochrome P450 2C9 was 2 µM (inconclusive).
On the same count and under the same terms, in the case of `CCN(CC)CC#CCOC(=O)[C@@](O)(c1ccccc1)C1CCCCC1` [ESOXYBUTYNIN] it was 15.8 µM (inconclusive).
With `C[C@@H](C(=O)Nc1ccc2ccccc2c1)[C@H]1C[C@]1(C)[C@H](NC(=O)Oc1ccc(F)cc1)c1ccccc1`, the AC50 on Cytochrome P450 2C9 is 31.6 µM (inconclusive).
As to `O=c1c(-c2ccc(Cl)cc2)nc2cncnc2n1Cc1ccc(F)cc1`, the AC50 on Cytochrome P450 3A4 was 15.8 µM (inconclusive).
Regarding `Nc1cccc2cc(S(=O)(=O)Nc3ccc(C(=O)O)cc3)ccc12`, the AC50 is 3.16 µM (inconclusive) on Cytochrome P450 2C19 (read-out: AC50) and 7.94 µM (inconclusive) at Cytochrome P450 2C9.
As to `Cc1cc(S(=O)(=O)NCCN(C)C)c(C)s1`, the AC50 on Cytochrome P450 2C19 (read-out: AC50) was 31.6 µM (inconclusive); at Cytochrome P450 2C9, 0.0447 µM (inconclusive).
Take `Cc1cc(C)c2cc(C#N)c(NCCOC(=O)c3ccccc3C)nc2c1`: the AC50 on Cytochrome P450 2C19 (read-out: AC50) is 1.78 µM (inconclusive).
Consider `Cc1nc2cnc(Oc3cccc(Cl)c3)nc2n(C[C@H]2CCCO2)c1=O`, for which the AC50 at Cytochrome P450 3A4 was 15.8 µM (inconclusive).
Still for that read-out and setting: in the case of `COc1ccc(NC(=O)N2CCCC3(CCN(C(=O)c4c(C)noc4C)CC3)C2)cc1` it was 25.1 µM (inconclusive).
As to `O=c1c(-c2cccs2)nc2cncnc2n1C1CC1`, the AC50 at Cytochrome P450 3A4 was 5.01 µM (inconclusive); on Cytochrome P450 2C9, 15.8 µM (inconclusive).
On to `c1ccc(CNc2nc(-c3ccoc3)nc3ccccc23)cc1`, for which the AC50 on Cytochrome P450 2C19 (read-out: AC50) was 20 µM (inconclusive).
`c1ccc(Oc2cccc(OCCCCSc3ncccn3)c2)cc1`: the EC50 in data set [1] is > 53 µM (inactive).
Regarding `O=C(OCc1ccccc1Cl)c1cc([N+](=O)[O-])ccc1N1CCOCC1`, the EC50 in data set [2] was 23.3 µM (active); in data set [3] it was > 120 µM (not active); in data set [4], 36.1 µM (active).
As to `CN(C)Cc1ccccc1-c1nc(N(C)Cc2ccco2)c2ccccc2n1`, the AC50 at Cytochrome P450 3A4 is 1.58 µM (inconclusive).
Turning to `Cc1c(CC(C)(C)C(=O)O)n(Cc2ccc(Cl)cc2)c2ccc(F)cc12`, the AC50 entry at Cytochrome P450 2C19 is “inconclusive”; at Cytochrome P450 3A4, 25.1 µM (inconclusive).
As for `CCC/C=C(\CCC)C(NC(=O)OCC(C)C)c1ccc(C(=O)OC)cc1` (stereo not drawn), the AC50 at Cytochrome P450 2C19 (read-out: AC50) is 25.1 µM (inconclusive).
For `CCOc1ccc(CNC(=O)C2CCC(=O)N2C2CCCC2)cc1OC` (stereo not drawn), the AC50 on Cytochrome P450 2C19 (read-out: AC50) was 22.4 µM (inconclusive); at Cytochrome P450 3A4, 25.1 µM (inconclusive); at Cytochrome P450 2C9 it was 28.2 µM (inconclusive).
As for `Nc1ccc(S(=O)(=O)c2ccc(NCN3C(=O)NC(=O)C(=O)C3=O)cc2)cc1` [ALLANTODAPSONE], the AC50 entry at Cytochrome P450 2C19 is “inconclusive”.
